Source: patent US9693556B2, “Herbicidal pyridazinone derivatives” (SYNGENTA LIMITED, priority 2011, dated 2017)

Experiments:
Type in all cases: in vivo
[1] = system: Amaranthus retoflexus (AMARE); assay: Post-emergence herbicidal glasshouse test on Amaranthus retoflexus; details: post-emergence; 1000 g/h; evaluated after 13 days
Outline: (§1)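 Read-out: percentage herbicidal damage 13 days after spraying, given on a five-point scale (5=80-100%, 4=60-79%, 3=40-59%, 2=20-39%, 1=0-19%). Pots of standard soil; application at 1000 g/h, one day post-sowing for pre-emergence, eight days for post-emergence.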

[2] = system: Ipomoea hederacea (IPOHE); assay: Pre-emergence herbicidal glasshouse test on Ipomoea hederacea; details: pre-emergence; 1000 g/h; evaluated after 13 days
Outline: as §1

[3] = system: Echinochloa crus-galli (ECHCG); assay: Pre-emergence herbicidal glasshouse test on Echinochloa crus-galli; details: pre-emergence; 1000 g/h; evaluated after 13 days
Outline: as §1

[4] = system: Amaranthus retoflexus (AMARE); assay: Pre-emergence herbicidal glasshouse test on Amaranthus retoflexus; details: pre-emergence; 1000 g/h; evaluated after 13 days
Outline: as §1

[5] = system: Echinochloa crus-galli (ECHCG); assay: Post-emergence herbicidal glasshouse test on Echinochloa crus-galli; details: post-emergence; 1000 g/h; evaluated after 13 days
Outline: as §1

Solanum nigrum (SOLNI) [6] = assay: Pre-emergence herbicidal glasshouse test on Solanum nigrum; details: pre-emergence; 1000 g/h; evaluated after 13 days
Outline: as §1

Solanum nigrum (SOLNI) [7] = assay: Post-emergence herbicidal glasshouse test on Solanum nigrum; details: post-emergence; 1000 g/h; evaluated after 13 days
Outline: as §1

Setaria faberi (SETFA) [8] = assay: Pre-emergence herbicidal glasshouse test on Setaria faberi; details: pre-emergence; 1000 g/h; evaluated after 13 days
Outline: as §1

[9] = system: Ipomoea hederacea (IPOHE); assay: Post-emergence herbicidal glasshouse test on Ipomoea hederacea; details: post-emergence; 1000 g/h; evaluated after 13 days
Outline: as §1

[10] = system: Alopecurus myosuroides (ALOMY); assay: Post-emergence herbicidal glasshouse test on Alopecurus myosuroides; details: post-emergence; 1000 g/h; evaluated after 13 days
Outline: as §1

[11] = system: Alopecurus myosuroides (ALOMY); assay: Pre-emergence herbicidal glasshouse test on Alopecurus myosuroides; details: pre-emergence; 1000 g/h; evaluated after 13 days
Outline: as §1

Setaria faberi (SETFA) [12] = assay: Post-emergence herbicidal glasshouse test on Setaria faberi; details: post-emergence; 1000 g/h; evaluated after 13 days
Outline: as §1

Row | SMILES | POST Application AMARE herbicidal damage (five point scale) [1] | PRE Application IPOHE herbicidal damage (five point scale) [2] | PRE Application ECHCG herbicidal damage (five point scale) [3] | PRE Application AMARE herbicidal damage (five point scale) [4] | POST Application ECHCG herbicidal damage (five point scale) [5] | PRE Application SOLNI herbicidal damage (five point scale) (Solanum nigrum (SOLNI) [6]) | POST Application SOLNI herbicidal damage (five point scale) (Solanum nigrum (SOLNI) [7]) | PRE Application SETFA herbicidal damage (five point scale) (Setaria faberi (SETFA) [8]) | POST Application IPOHE herbicidal damage (five point scale) [9] | POST Application ALOMY herbicidal damage (five point scale) [10] | PRE Application ALOMY herbicidal damage (five point scale) [11] | POST Application SETFA herbicidal damage (five point scale) (Setaria faberi (SETFA) [12])
1 | Cn1ncc(-c2cnc(C(F)(F)F)nc2N2CCOCC2)c(O)c1=O [Compound 8.001, 4-hydroxy-2-methyl-5-[4-morpholino-2-(trifluoromethyl)pyrimidin-5-yl]pyridazin-3-one] | 5 (5=80-100% damage) | 3 (3=40-59% damage) | 5 (5=80-100% damage) | 5 (5=80-100% damage) | 5 (5=80-100% damage) | 5 (5=80-100% damage) | 5 (5=80-100% damage) | 2 (2=20-39% damage) | 5 (5=80-100% damage) | 1 (1=0-19% damage) | 1 (1=0-19% damage) | 2 (2=20-39% damage)
2 | Cn1ncc(-c2ccc(C(F)(F)F)n(-c3cccc(C(F)(F)F)n3)c2=O)c(O)c1=O [Compound 9.001] | 3 (3=40-59% damage) | 1 (1=0-19% damage) | 2 (2=20-39% damage) | 2 (2=20-39% damage) | 4 (4=60-79% damage) | 1 (1=0-19% damage) | 4 (4=60-79% damage) | 1 (1=0-19% damage) | 1 (1=0-19% damage) | 4 (4=60-79% damage) | 3 (3=40-59% damage) | 4 (4=60-79% damage)
3 | C=CCn1cccc(-c2cnn(C)c(=O)c2O)c1=O [Compound 9.002] | 4 (4=60-79% damage) | 1 (1=0-19% damage) | 1 (1=0-19% damage) | 1 (1=0-19% damage) | 2 (2=20-39% damage) | 1 (1=0-19% damage) | 5 (5=80-100% damage) | 1 (1=0-19% damage) | 2 (2=20-39% damage) | 1 (1=0-19% damage) | 1 (1=0-19% damage) | 2 (2=20-39% damage)
4 | Cn1cccc(-c2cnn(C)c(=O)c2O)c1=O [Compound 9.003] | 4 (4=60-79% damage) | 1 (1=0-19% damage) | 1 (1=0-19% damage) | 2 (2=20-39% damage) | 1 (1=0-19% damage) | 1 (1=0-19% damage) | 4 (4=60-79% damage) | 1 (1=0-19% damage) | 2 (2=20-39% damage) | 1 (1=0-19% damage) | 1 (1=0-19% damage) | 2 (2=20-39% damage)
5 | COc1ccc(Cn2cccc(-c3cnn(C)c(=O)c3O)c2=O)cc1 [Compound 9.004] | 4 (4=60-79% damage) | 1 (1=0-19% damage) | 1 (1=0-19% damage) | 1 (1=0-19% damage) | 1 (1=0-19% damage) | 1 (1=0-19% damage) | 4 (4=60-79% damage) | 1 (1=0-19% damage) | 3 (3=40-59% damage) | 1 (1=0-19% damage) | 1 (1=0-19% damage) | 1 (1=0-19% damage)
6 | Cn1ncc(-c2cccn(CC(F)(F)F)c2=O)c(O)c1=O [Compound 9.005] | 2 (2=20-39% damage) | 1 (1=0-19% damage) | 1 (1=0-19% damage) | 1 (1=0-19% damage) | 1 (1=0-19% damage) | 1 (1=0-19% damage) | 4 (4=60-79% damage) | 1 (1=0-19% damage) | 2 (2=20-39% damage) | 1 (1=0-19% damage) | 1 (1=0-19% damage) | 1 (1=0-19% damage)
7 | Cn1ncc(-c2cccn(CC3CC3)c2=O)c(O)c1=O [Compound 9.006] | 3 (3=40-59% damage) | 1 (1=0-19% damage) | 1 (1=0-19% damage) | 1 (1=0-19% damage) | 1 (1=0-19% damage) | 1 (1=0-19% damage) | 3 (3=40-59% damage) | 1 (1=0-19% damage) | 2 (2=20-39% damage) | 2 (2=20-39% damage) | 1 (1=0-19% damage) | 2 (2=20-39% damage)
